In patent US6727275B2, “Pyrrolidinone derivatives” (UCB, S.A./N.V., priority 2001, dated 2004):

Assays:
CCR2 [1] = molecular target: T1, CCR2 (Homo sapiens, UniProt P41597); experiment: Chemotaxis assay: MCP-1 induced migration of THP-1 cells; assay type: cell-based; set-up: endogenous in cells; host or cells: THP-1 cells; conditions: 3 nM MCP-1, 37° C. for 2 hr, read-out: Inhibition of cell chemotaxis, IC50
T1 sequence (P41597 1-360 isoform P41597-2): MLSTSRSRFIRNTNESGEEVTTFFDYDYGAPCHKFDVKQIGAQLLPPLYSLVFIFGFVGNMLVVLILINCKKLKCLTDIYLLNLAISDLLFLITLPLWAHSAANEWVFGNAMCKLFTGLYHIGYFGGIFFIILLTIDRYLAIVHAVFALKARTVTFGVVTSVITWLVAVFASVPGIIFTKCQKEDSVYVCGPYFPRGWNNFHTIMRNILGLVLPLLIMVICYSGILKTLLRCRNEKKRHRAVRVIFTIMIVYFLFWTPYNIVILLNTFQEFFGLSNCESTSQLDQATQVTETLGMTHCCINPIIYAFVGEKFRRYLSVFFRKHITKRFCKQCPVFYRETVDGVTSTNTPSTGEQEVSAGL
Description: Antagonism of CCR2 function is determined by a chemotaxis assay. MCP-1 is prepared in buffer (Hanks+0.1% human serum albumin) at 3 nM concentration and aliquoted into the bottom chambers of a 96-well chemotaxis plate (Neuroprobe). THP-1 cells are suspended in the same buffer at 1×10^7 cells/ml and compound added at various concentrations to the aliquots of cells. The cell and compound mixture is added to the top of the polycarbonate membrane (5 μm pore diameter) and the chemotaxis plate incubated at 37° C. for 2 hr. After the unmigrated cells are scraped off the top of the filter, the plate is gently centrifuged and the membrane removed. Cells which migrate to the bottom chamber are quantitated by counting with a hemacytometer. Spontaneous chemotaxis is determined by measuring cell migration in the absence of chemokine. Chemotaxis of a positive control is determined by measuring cell migration without compound. Inhibition of cell chemotaxis is determined as an IC50.

CCR2 [2] = molecular target: T1, CCR2; experiment: Binding assay: inhibition of 125I-MCP-1 binding to THP-1 cells; set-up: CCR2 is also expressed in the human monocytic cell line THP-1; endogenous in cells; host or cells: THP-1 (human monocytic cell line), whole cells; conditions: THP-1 cells, 0.1 nM 125I-MCP-1, 1 hr at room temperature; read-out: Inhibition of 125I-MCP-1 binding to THP-1 cells, IC50
Description: Antagonism of the CCR2 receptor is determined by a binding assay using the human monocytic cell line THP-1. Cells are suspended in assay buffer (RPMI+1% BSA+25 mM HEPES) at 3×10^6 cells/ml and an aliquot (180 μl) added to a 0.5 ml siliconized Eppendorf tube. […] After incubation for 1 hr at room temperature, the cell suspension is centrifuged through oil and the cell pellets counted to quantitate cell-bound ligand. Nonspecific (NS) binding of radioligand is determined by the addition of 100 nM cold MCP-1. Control binding is determined by the addition of buffer without compound.

| IC50 (CCR2 [1]) | IC50 (CCR2 [2]) | melting point | SMILES |
| --- | --- | --- | --- |
|  | ≤ 5 µM |  | C=C1CCC(C2C(C(C)=O)=C(O)C(=O)N2c2ccc(Cl)cc2F)CC1 (racemic) [Compound 153, 4-acetyl-1-(4-chloro-2-fluorophenyl)-3-hydroxy-5-(4-methylenecyclohexyl)-1,5-dihydro-2H-pyrrol-2-one] |
|  | ≤ 5 µM |  | CC(=O)C1=C(S)C(=O)N(c2ccc(Cl)cc2)C1C1CCCCC1 (racemic) [Compound 157, 4-acetyl-1-(4-chlorophenyl)-5-cyclohexyl-3-mercapto-1,5-dihydro-2H-pyrrol-2-one] |
|  | ≤ 5 µM |  | CC(=O)C1=C(S)C(=O)N(c2ccc(Cl)cc2F)C1C1CCCCC1 (racemic) [Compound 169, 4-acetyl-1-(4-chloro-2-fluorophenyl)-5-cyclohexyl-3-sulfanyl-1,5-dihydro-2H-pyrrol-2-one] |
|  | ≤ 5 µM |  | CC(=O)C1=C(O)C(=O)N(c2c(F)cc(Cl)cc2F)[C@H]1C1CCCCC1 (stereo in doubt) [Compound 147, (S)-4-acetyl-1-(4-chloro-2,6-difluorophenyl)-5-cyclohexyl-3-hydroxy-1,5-dihydro-2H-pyrrol-2-one] |
|  | ≤ 5 µM |  | CC(=O)C1=C(O)C(=O)N(c2c(F)cc(Cl)cc2F)[C@@H]1C1CCCCC1 (stereo in doubt) [Compound 148, (R)-4-acetyl-1-(4-chloro-2,6-difluorophenyl)-5-cyclohexyl-3-hydroxy-1,5-dihydro-2H-pyrrol-2-one] |
|  | ≤ 5 µM |  | CC(=O)C1=C(O)C(=O)N(c2ccc(Cl)cc2F)[C@@H]1C1CCCC1 [Compound 129, (R)-4-acetyl-1-(4-chloro-2-fluorophenyl)-5-cyclopentyl-3-hydroxy-1,5-dihydro-2H-pyrrol-2-one] |
|  |  | 74 °C | CCOC(=O)OC1=C(C(C)=O)[C@@H](C2CCCCC2)N(c2ccc(Cl)cc2F)C1=O [Compound P1, (5R)-4-acetyl-1-(4-chloro-2-fluorophenyl)-5-cyclohexyl-2-oxo-2,5-dihydro-1H-pyrrol-3-yl ethyl carbonate] |

Second part, the compound before the results:

| SMILES | IC50 (CCR2 [1]) | IC50 (CCR2 [2]) | melting point |
| --- | --- | --- | --- |
| CC(=O)C1=C(O)C(=O)N(c2ccc(C)cc2)C1C1CCCCC1 (racemic) [Compound 10, 4-acetyl-5-cyclohexyl-3-hydroxy-1-(4-methylphenyl)-1,5-dihydro-2H-pyrrol-2-one] | ≤ 5 µM | ≤ 5 µM |  |
| CC(=O)C1=C(O)C(=O)N(c2ccc(Cl)cc2)C1C1CCCCC1 (racemic) [Compound 24, 4-acetyl-1-(4-chlorophenyl)-5-cyclohexyl-3-hydroxy-1,5-dihydro-2H-pyrrol-2-one] | ≤ 5 µM | ≤ 5 µM |  |
| CC(=O)C1=C(O)C(=O)N(c2ccc(Cl)c(C)c2)C1C1CCCCC1 (racemic) [Compound 53, 4-acetyl-1-(4-chloro-3-methylphenyl)-5-cyclohexyl-3-hydroxy-1,5-dihydro-2H-pyrrol-2-one] | ≤ 5 µM | ≤ 5 µM |  |
| CC(=O)C1=C(O)C(=O)N(c2ccc(Cl)c(C)c2)C1C1CCCC1 (racemic) [Compound 69, 4-acetyl-1-(4-chloro-3-methylphenyl)-5-cyclopentyl-3-hydroxy-1,5-dihydro-2H-pyrrol-2-one] | ≤ 5 µM | ≤ 5 µM |  |
| CC(=O)C1=C(O)C(=O)N(c2ccc(Cl)cc2)C1C1CCC(C)CC1 (racemic) [Compound 150, 4-acetyl-1-(4-chlorophenyl)-3-hydroxy-5-(4-methylcyclohexyl)-1,5-dihydro-2H-pyrrol-2-one] |  | ≤ 5 µM |  |
| CC(=O)C1=C(O)C(=O)N(c2c(F)cc(Br)cc2F)C1C1CCCCC1 (racemic) [Compound 154, 4-acetyl-1-(4-bromo-2,6-difluorophenyl)-5-cyclohexyl-3-hydroxy-1,5-dihydro-2H-pyrrol-2-one] |  | ≤ 5 µM |  |
| CC(=O)C1=C(O)C(=O)N(c2ccc(Cl)s2)C1C1CCCCC1 (racemic) [Compound 170, 4-acetyl-1-(5-chloro-2-thienyl)-5-cyclohexyl-3-hydroxy-1,5-dihydro-2H-pyrrol-2-one] |  | ≤ 5 µM |  |
| CC(=O)C1=C(O)C(=O)N(c2ccc(Cl)cn2)C1C1CCCCC1 (racemic) [Compound 172, 4-acetyl-1-(5-chloro-2-pyridinyl)-5-cyclohexyl-3-hydroxy-1,5-dihydro-2H-pyrrol-2-one] |  | ≤ 5 µM |  |
| CCC(C)C(C)C1C(C(C)=O)=C(O)C(=O)N1c1ccc(C)cc1 (stereo not shown) [Compound 19, 4-acetyl-5-(1,2-dimethylbutyl)-3-hydroxy-1-(4-methylphenyl)-1,5-dihydro-2H-pyrrol-2-one] |  | ≤ 5 µM |  |
| CC(=O)C1=C(O)C(=O)N(c2ccc(C)cc2)C1C1C=CCCC1 (stereo not shown) [Compound 50, 4-acetyl-5-(cyclohex-2-en-1-yl)-3-hydroxy-1-(4-methylphenyl)-1,5-dihydro-2H-pyrrol-2-one] |  | ≤ 5 µM |  |
| CC(=O)C1=C(O)C(=O)N(c2ccc(C)cc2)C1C1CC2C=CC1C2 (stereo not shown) [Compound 79, 4-acetyl-5-bicyclo[2.2.1]hept-5-en-2-yl-3-hydroxy-1-(4-methylphenyl)-1,5-dihydro-2H-pyrrol-2-one] |  | ≤ 5 µM |  |
| CC(=O)C1=C(O)C(=O)N(c2ccc(Cl)cc2)C1C1CC2C=CC1C2 (stereo not shown) [Compound 121, 4-acetyl-5-bicyclo[2.2.1]hept-5-en-2-yl-1-(4-chlorophenyl)-3-hydroxy-1,5-dihydro-2H-pyrrol-2-one] |  | ≤ 5 µM |  |
| CC(=O)C1=C(O)C(=O)N(c2ccc(Cl)c(C)c2)[C@@H]1C1CCCC1 [Compound 135, (R)-4-acetyl-1-(4-chloro-3-methylphenyl)-5-cyclopentyl-3-hydroxy-1,5-dihydro-2H-pyrrol-2-one] |  | ≤ 5 µM |  |
| CC(=O)C1=C(O)C(=O)N(c2ccc(F)cc2)[C@@H]1C1CCCC1 [Compound 137, (R)-4-acetyl-5-cyclopentyl-1-(4-fluorophenyl)-3-hydroxy-1,5-dihydro-2H-pyrrol-2-one] |  | ≤ 5 µM |  |
| CC(=O)C1=C(O)C(=O)N(c2ccc(F)cc2)[C@@H]1C1CCCCC1 [Compound 139, (R)-4-acetyl-5-cyclohexyl-1-(4-fluorophenyl)-3-hydroxy-1,5-dihydro-2H-pyrrol-2-one] |  | ≤ 5 µM |  |
| CC(=O)C1=C(O)C(=O)N(c2ccc(Cl)cc2)[C@@H]1C12CC3CC(CC1C3)C2 [Compound 156, (R)-4-acetyl-1-(4-chlorophenyl)-3-hydroxy-5-tricyclo[3.3.1.0˜3,7˜]non-3-yl-1,5-dihydro-2H-pyrrol-2-one] | ≤ 5 µM | ≤ 5 µM |  |
